{"source": "patent US20050214285A1", "about": "“Epitopes or mimotopes derived from the C-epsilon-3 or C-epsilon-4 domains of IgE, antagonists thereof, and their therapeutic uses” (SmithKline Beecham Biologicals, s.a. and Peptide …, priority 1999, published 2005)", "molecules": {"B1": {"name": "recombinant FcεRIα ectodomain (receptor, UniProt P12319 26-205, looked up)", "chain": "VPQKPKVSLNPPWNRIFKGENVTLTCNGNNFFEVSSTKWFHNGSLSEETNSSLNIVNAKFEDSGEYKCQHQQVNESEPVYLEVFSDWLLLQASAEVVMEGQPLFLRCHGWRNWDVYKVIYYKDGEALKYWYENHNISITNATVEDSGTYYCTGKVWQLDYESEPLNITVIKAPREKYWLQ", "notes": "extracellular domain; also called FcεR1α ectodomain; FcεR1α"}}, "key": {"PTmAb0011 [1]": {"system": "PTmAb0011", "experiment": "Phage display ranking of peptide ligands for PTmAb0011", "type": "binding, mouse", "conditions": "IgEC67 mutants (Table 8)", "text": "Phage display libraries were used to map the binding sites of the monoclonal antibodies using three different phage libraries, displaying either the XCX15, XCX10 or XAX10 peptide sequence (where X is any amino acid) at the N-terminus of the phage gVIIIp. Tables 6 and 7 show the results of selecting for peptide ligands with the anti human IgE monoclonal antibodies […]. […]\n(§1) This involved a DNA sub-cloning transfer from the major coat protein (gVIIIp) filamentous phage display vector to a lower copy number minor phage coat protein (gIIIp) display vector with a random PCR step. […] Included in the tables are ranking orders and also BIAcore affinities where available."}, "PTmAb0005 [2]": {"system": "PTmAb0005", "experiment": "Phage display ranking of peptide ligands for PTmAb0005", "type": "binding"}, "human IgE": {"system": "human IgE", "experiment": "Immunisation of mice with peptide expressing phage", "type": "in vivo, mouse", "conditions": "peptide expressing phage used as immunogen"}, "PTmAb0011 [3]": {"molecular_target": "PTmAb0011", "experiment": "BIAcore affinity to PTmAb0011", "type": "binding, mouse", "conditions": "read-out: PTmAb BIAcore KD^Rel (μM) PTmAb0011", "text": "as §1\n(§2) Thus indicating the importance of correct presentation of the peptides of the present invention to adopt a shape which closely resembles the native target in the context of the whole IgE molecule. [drawing]"}, "PTmAb0005 [4]": {"molecular_target": "PTmAb0005", "experiment": "BIAcore affinity to PTmAb0005", "type": "binding", "conditions": "read-out: PTmAb BIAcore KD^Rel (μM) PTmAb0005", "text": "as §1, §2"}, "human chimaeric IgE": {"system": "human chimaeric IgE", "experiment": "IgE plate bound ELISA: anti-human IgE reactivity in mouse serum", "type": "in vivo", "conditions": "for anti-IgE antibody response when presented on carriers: in vivo", "protocol": "ELISA plates are coated with human chimaeric IgE at 1 μg/ml in pH 9.6 carbonate/bicarbonate coating buffer for 1 hour at 37° C. or overnight at 4° C. Non-specific binding sites are blocked with PBS/0.05% Tween-20 containing 5% w/v Marvel milk powder for 1 hour at 37° C. […] Polyclonal serum binding is detected with goat anti-mouse IgG-Biotin (1/2000) followed by Streptavidin-HRP (1/1000). Conjugated antibody is detected with TMB substrate at 450nm. A standard curve of PTmAb0011 is included on each plate so that the anti-IgE reactivity in serum samples can be calculated in μg/ml.\n(§3) The conjugates comprising the mimotope P15 (25 μg protein/dose), described in 1.4, were administered into groups of 10 BalbC mice, adjuvanted with and oil in water emulsion containing QS21 and 3D-MPL described in WO 95/17210 . Boosting was be performed on day 21 and on day 42 and sera can be harvested on day 42 and 56. The immune response anti-peptide and anti-plate bound IgE was followed using methods described in Example 1.\nThe mice were bled after the last immunisation and tested for anti-IgE reactivity in the IgE plate bound ELISA. The individual, average (Av), geomean (GM), results are summarised below (SD=standard deviation).\nThese vaccines were administered into groups of 10 BalbC mice, and boosting was be performed on day 14 and on day 28 and sera was harvested on day 42. The immune response to anti-plate bound IgE and receptor orientated IgE, was then followed using the techniques described in example 1.4. Also, the activity of the antiserum in the inhibition of histamine release from allergic basophils was measured in the techniques described in 1.5."}, "[5]": {"system": "basophils from freshly harvested peripheral blood from allergic patients", "text": "Several dilutions of complete sera or IgG purified from conjugate immunised mice can be tested in presence of basophils from freshly harvested peripheral blood from allergic patients."}, "biotinylated peptide": {"system": "biotinylated peptide", "experiment": "Anti-peptide ELISA of sera from immunised mice", "type": "in vivo, BalbC mice", "conditions": "for Anti peptide immune responses, Mid point titres, Av / Anti peptide immune responses, Mid point titres, GM / Anti peptide immune responses/mouse, Mid point titres, mouse 1 / Anti peptide immune responses/mouse, Mid point titres, mouse 2 / Anti peptide immune responses/mouse, Mid point titres, mouse 3 / Anti peptide immune responses/mouse, Mid point titres, mouse 4 / Anti peptide immune responses/mouse, Mid point titres, mouse 5 / Anti peptide immune responses/mouse, Mid point titres, mouse 6 / Anti peptide immune responses/mouse, Mid point titres, mouse 7 / Anti peptide immune responses/mouse, Mid point titres, mouse 8 / Anti peptide immune responses/mouse, Mid point titres, mouse 9 / Anti peptide immune responses/mouse, Mid point titres, mouse 10: conjugated to BSA, 14 days after third vaccination; for Anti peptide immune responses, Mid point titres, Av: average; for Anti peptide immune responses, Mid point titres, GM: geomean", "protocol": "The anti-peptide and anti-carrier immune responses were investigated using an ELISA technique outlined below. Microtiterplates (Nunc) are coated with the specific antigen in PBS (4° overnight) with either: Streptavidin at 2 μg/ml (followed by incubation with biotinylated peptide (1 μM) for 1 hour at 37° C.), Wash 3×PBS-Tween 20 0.1%. Saturate plates with PBS-BSA 1%-Tween 20 0.1% (Sat buffer) for 1 hr at 37°. Add 1° antibody=sera in two-step dilution (in Sat buffer), incubate 1 hr 30 minutes at 37°. Wash 3×. Add 2° anti-mouse Ig (or anti-mouse isotype specific monoclonal antibody) coupled to HRP. Incubate 1 hr at 370. Wash 5×. Reveal with TMB (BioRad) for 10 minutes at room temperature in the dark. Block reaction with 0.4N H2SO4.\nas §3"}, "allergic human basophils": {"system": "allergic human basophils", "experiment": "Histamine release inhibition from allergic human basophils", "type": "cell-based", "conditions": "antiserum of an individual immunised mouse, dilution 1/30", "protocol": "Blocking activity of anti-P15 antibodies in the antiserum was evaluated by the measuring of the inhibition of the histamine release induced by the allergen. Histamine release and inhibition was measured as described in example 3. As P15 is a mimotope of P1, PTmAb0011 was used as a control as it is known to bind to the same epitope (P1)."}, "Cε2-4": {"molecular_target": "T1, Cε2-4 (human, UniProt P01854-1 106-428)", "T1 construct": "also called WT cε2-4; cε2-4 fragment", "T1 sequence (P01854 other isoform, or with tags, fused parts or gaps limits assumed)": "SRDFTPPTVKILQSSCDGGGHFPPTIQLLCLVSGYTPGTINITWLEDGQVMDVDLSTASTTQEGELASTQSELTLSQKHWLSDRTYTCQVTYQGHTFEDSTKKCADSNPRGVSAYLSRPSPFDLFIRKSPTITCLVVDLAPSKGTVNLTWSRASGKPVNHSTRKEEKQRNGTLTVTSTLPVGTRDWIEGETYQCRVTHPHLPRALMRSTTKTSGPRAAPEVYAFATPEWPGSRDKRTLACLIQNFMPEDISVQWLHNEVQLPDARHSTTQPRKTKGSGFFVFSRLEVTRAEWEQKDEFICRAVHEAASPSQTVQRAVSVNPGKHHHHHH", "experiment": "ELISA, graded"}, "[6]": {"conditions": "BalbC mice, 25 μg protein/dose, day 14 post third vaccination"}}, "note": "Several values for one entry are separate records, joined by “and”; a condition that tells them apart may be missing. Equal entries are not always repeated. Positions of bridges follow the written chain, without caps; N, C: chain ends. Residues, ends and D or L forms follow the SMILES beside them. No end group written: not given here."}
{"molecule": "CC[C@H](C)[C@@H]1NC(=O)[C@H](Cc2ccccc2)NC(=O)[C@@H](N)CSSC[C@@H](C(=O)N2CCC[C@H]2C(=O)N[C@@H](CCCNC(=N)N)C(=O)N[C@@H](CCC(=O)O)C(=O)O)NC(=O)[C@H](CC(C)C)NC(=O)[C@H](CCC(=O)O)NC(=O)[C@H](CC(C)C)NC(=O)[C@H](CC(=O)O)NC(=O)[C@H](C)NC(=O)[C@H](CCSC)NC(=O)[C@H](CCC(N)=O)NC(=O)[C@H](CCCCN)NC(=O)[C@H](CC(N)=O)NC1=O", "note": "[IgEC67-8] (H-CFINKQMADLELCPRE-OH; disulfide 1-13)", "values": [{"measurement": "PTmAb Rank 0011", "setting": "PTmAb0011 [1]", "result": 2.4}, {"measurement": "Rel. Rank A", "setting": "PTmAb0005 [2]; IgEC67-8 mutants (Table 9)", "result": 1.00}, {"measurement": "Rel. Rank B", "setting": "PTmAb0005 [2]; IgEC67-8 mutants (Table 9)", "result": 1.00}, {"measurement": "PTmAb Rank 0005", "setting": "PTmAb0005 [2]; IgEC67 mutants (Table 8)", "result": 4.36}, {"measurement": "anti-human IgE response in mice", "setting": "human IgE", "result": "capable of inducing an anti-human IgE response in mice"}, {"measurement": "Kd", "setting": "PTmAb0011 [3]", "result": 0.066, "unit": "µM"}, {"measurement": "Kd", "setting": "PTmAb0005 [4]", "result": 0.0094, "unit": "µM"}]}
{"molecule": "CSQKHWLSDRT-NH2 [Peptide P17]", "values": [{"measurement": "anti-IgE antibody response when presented on carriers", "setting": "human chimaeric IgE", "result": "strong anti-IgE antibody responses"}, {"measurement": "anaphylactogenicity of the induced antiserum", "setting": "[5]", "result": "non anaphylactogenic"}, {"measurement": "Anti peptide immune responses, Mid point titres, Av", "setting": "biotinylated peptide", "result": 5446}, {"measurement": "Anti peptide immune responses, Mid point titres, GM", "setting": "biotinylated peptide", "result": 4656}, {"measurement": "Anti peptide immune responses/mouse, Mid point titres, mouse 1", "setting": "biotinylated peptide", "result": 100}, {"measurement": "Anti peptide immune responses/mouse, Mid point titres, mouse 2", "setting": "biotinylated peptide", "result": 4349}, {"measurement": "Anti peptide immune responses/mouse, Mid point titres, mouse 3", "setting": "biotinylated peptide", "result": 2850}, {"measurement": "Anti peptide immune responses/mouse, Mid point titres, mouse 4", "setting": "biotinylated peptide", "result": 3434}, {"measurement": "Anti peptide immune responses/mouse, Mid point titres, mouse 5", "setting": "biotinylated peptide", "result": 6133}, {"measurement": "Anti peptide immune responses/mouse, Mid point titres, mouse 6", "setting": "biotinylated peptide", "result": 2231}, {"measurement": "Anti peptide immune responses/mouse, Mid point titres, mouse 7", "setting": "biotinylated peptide", "result": 5085}, {"measurement": "Anti peptide immune responses/mouse, Mid point titres, mouse 8", "setting": "biotinylated peptide", "result": 2991}, {"measurement": "Anti peptide immune responses/mouse, Mid point titres, mouse 9", "setting": "biotinylated peptide", "result": 13070}, {"measurement": "Anti peptide immune responses/mouse, Mid point titres, mouse 10", "setting": "biotinylated peptide", "result": 8874}]}
{"molecule": "CSTTQEGELA-NH2 [Peptide P16]", "values": [{"measurement": "anti-IgE antibody response when presented on carriers", "setting": "human chimaeric IgE", "result": "strong anti-IgE antibody responses"}, {"measurement": "anaphylactogenicity of the induced antiserum", "setting": "[5]", "result": "non anaphylactogenic"}, {"measurement": "Anti peptide immune responses, Mid point titres, Av", "setting": "biotinylated peptide", "result": 1882}, {"measurement": "Anti peptide immune responses, Mid point titres, GM", "setting": "biotinylated peptide", "result": 1478}, {"measurement": "Anti peptide immune responses/mouse, Mid point titres, mouse 1", "setting": "biotinylated peptide", "result": 1891}, {"measurement": "Anti peptide immune responses/mouse, Mid point titres, mouse 2", "setting": "biotinylated peptide", "result": 649}, {"measurement": "Anti peptide immune responses/mouse, Mid point titres, mouse 3", "setting": "biotinylated peptide", "result": 1299}, {"measurement": "Anti peptide immune responses/mouse, Mid point titres, mouse 4", "setting": "biotinylated peptide", "result": 2349}, {"measurement": "Anti peptide immune responses/mouse, Mid point titres, mouse 5", "setting": "biotinylated peptide", "result": 591}, {"measurement": "Anti peptide immune responses/mouse, Mid point titres, mouse 6", "setting": "biotinylated peptide", "result": 1474}, {"measurement": "Anti peptide immune responses/mouse, Mid point titres, mouse 7", "setting": "biotinylated peptide", "result": 4605}, {"measurement": "Anti peptide immune responses/mouse, Mid point titres, mouse 8", "setting": "biotinylated peptide", "result": 918}, {"measurement": "Anti peptide immune responses/mouse, Mid point titres, mouse 9", "setting": "biotinylated peptide", "result": 4177}, {"measurement": "Anti peptide immune responses/mouse, Mid point titres, mouse 10", "setting": "biotinylated peptide", "result": 865}]}
{"molecule": "P15-BSA: P15 (CLEDGQVMDVDLL) conjugated to BSA (CLEDGQVMDVDLL-NH2; also: conjugated to BSA) [Peptide P15-BSA]", "values": [{"measurement": "% inhibition of histamine release", "setting": "allergic human basophils", "result": "67% and 57%"}, {"measurement": "Anti-IgE responses (μg/ml (PTmAb0011)) Average", "setting": "human chimaeric IgE; [6]", "result": 2.2, "unit": "µg/mL"}, {"measurement": "Anti-IgE responses (μg/ml (PTmAb0011)) Geomean", "setting": "human chimaeric IgE; [6]", "result": 1.0, "unit": "µg/mL"}, {"measurement": "anaphylactogenicity of the induced antiserum", "setting": "[5]", "result": "Neither antiserum generated with P15-BSA or P15-PD was shown to be anaphylactogenic"}, {"measurement": "Anti-peptide responses (Mid point titre) Average", "setting": "biotinylated peptide; [6]", "result": 49591}, {"measurement": "Anti-peptide responses (Mid point titre) Geomean", "setting": "biotinylated peptide; [6]", "result": 48719}]}
{"molecule": "B1", "values": [{"measurement": "binding result", "setting": "Cε2-4", "result": "binds"}]}
